Patent US7544468B2, “Simultaneous collection of DNA and non-nucleic analytes” (Orasure Technologies, Inc., priority 1997, dated 2009)
Where a name gives a salt, the structure may show the parent alone. Read-outs that look alike come from different tables or passages of the source.

Key:
[1] = Single dose study: intravenous cocaine, detection in oral fluid and urine by STC assay and GC/MS; assay type: in vivo, human
Protocol: A total of 10 volunteers received 10 or 25 mg of intravenous cocaine in a controlled environment. Oral fluid and urine specimens were collected over 0-130 hours after dose. Oral fluid specimens (400 µL) were added to the collection pad and diluted into the EPISCREEN™ Control Matrix. Samples were then tested using the STC assay and GC/MS. The results were platted over time for each patient. The oral fluid and urine results were compared using similar points on the curve. For all volunteers, regardless of the dose, the cocaine concentrations in oral fluid were detectable 5 minutes after dosing. For the subject who received 10 mg, oral fluid cocaine levels were no longer detectable after 25 minutes. For the remaining nine subjects who received 25 mg intravenous cocaine, drug levels in oral fluids were detectable after dosing for up to 3-6 hours. The length of time detectable drug concentrations were present in urine varied greatly. […] This variability could be attributed to a number of factors, including the volume of urine collected and the sensitivity of the cutoff used. In general, however, positive results were obtained in the subjects for up to 58 hours after dosing.

[2] = cited from earlier work
[3] = cited from earlier work; remark: listed apart in the source

COC(=O)[C@H]1[C@@H](OC(=O)c2ccccc2)C[C@@H]2CC[C@H]1N2C [Cocaine, benzyolmethylecgonine]
time after dosing at which cocaine concentrations in oral fluid were detectable ([1]; all volunteers, 10 or 25 mg intravenous): 5 min | time drug levels in oral fluids were detectable after dosing ([1]; nine subjects, 25 mg intravenous): 3 to 6 h | time after which oral fluid cocaine levels were no longer detectable ([1]; subject who received 10 mg intravenous): 25 min

CN[C@@H](C)Cc1ccccc1 [Methamphetamine, methylamphetamine hydrochloride]
found unchanged in urine ([2]; acid urine): up to 76% | found unchanged in urine ([2]; alkaline urine): 2% | excreted in the urine unchanged ([2]; normal conditions): up to 43% | time detected in oral fluid ([2]; oral fluid, depends on dose and rate of saliva flow): ≤ 50 h | time detection in urine is successful following use ([2]; urine): 24 to 48 h

CCCCCc1cc(O)c2c(c1)OC(C)(C)[C@@H]1CCC(C)=C[C@@H]21 [THC, Tetrahydrocannabinol]
persistence in saliva ([3]; saliva, after use, depends on pH and rate of saliva flow): ≤ 14 h | persistence in urine ([3]; urine, depending upon the frequency of use): up to 30 days
